Test results: patent US20170218042A1, “METHODS OF ISOLATING T CELL RECEPTORS HAVING ANTIGENIC SPECIFICITY FOR A CANCER-SPECIFIC MUTATION” (The United State of America, as represented by the …, priority 2014, published 2017)

Tested on: 3737-TIL
Assay: Co-culture of 3737-TIL with TMG-RNA-transfected autologous DCs; flow cytometry for activation markers 4-1BB and OX40
Assay type: cell-based, human
Procedure: APCs (DCs or B cells) were harvested, washed 1× with PBS, and then resuspended in Opti-MEM (Life Technologies) at 10-30×10^6 cells/ml. IVT RNA (4 μg or 8 μg) was aliquoted to the bottom of a 2 mm gap electroporation cuvette, and 50 μl or 100 μl of APCs were added directly to the cuvette. The final RNA concentration used in electroporations was thus 80 μg/ml. Electroporations were carried out using a BTX-830 square wave electroporator. DCs were electroporated with 150 V, 10 ms, and 1 pulse, and B cells were electroporated with 150 V, 20 ms, and 1 pulse. Transfection efficiencies using these settings were routinely between 70-90% as assessed with GFP RNA (data not shown). All steps were carried out at room temperature. Following electroporation, cells were immediately transferred to polypropylene tubes containing DC- or B-cell media supplemented with the appropriate cytokines. Transfected cells were incubated overnight (12-14 h) at 37° C., 5% CO2. Cells were washed 1× with PBS prior to use in co-culture assays.
When DCs were used as APCs, approximately 3.5×10^4 to 7×10^4 DCs were used per well of a 96-well flat or round-bottom plate. When B cells were used as APCs, approximately 2×10^5 cells were used per well of a 96-well round-bottom plate. In ELISPOT assays, 1×10^3 to 1×10^4 effector T cells were used per well, and in flow cytometry assays, 1×10^5 effector T cells were used per well. T cells were typically thawed and rested in IL-2 containing 50/50 media (3000 IU/ml IL-2) for two days and then washed with PBS (3×) prior to co-culture assays. All co-cultures were performed in the absence of exogenously added cytokines. For all assays, plate-bound OKT3 (0.1 μg/ml or 1 μg/ml) was used as a positive control.
Expression of the T-cell activation markers OX40 and 4-1BB was assessed by flow cytometry at approximately t=22-26 h post-stimulation. Briefly, cells were pelleted, washed with FACS buffer (1×PBS supplemented with 1% FBS and 2 mM EDTA), and then stained with the appropriate antibodies for approximately 30 min, at 4° C. in the dark. Cells were washed at least once with FACS buffer prior to acquisition on a BD FACSCanto II flow cytometer. All data were gated on live (PI negative), single cells.
The TMG constructs were then used as templates for the generation of in vitro transcribed (IVT) RNA. Each of these IVT TMG RNAs was then individually transfected into autologous APCs (DCs) followed by a co-culture with TIL to determine whether any of the processed and presented mutated antigens were recognized by TIL. It was observed that 3737-TIL were reactive to a mutated antigen present in TMG-1, but not TMG-2 or TMG-3 (FIG. 1A). […] Tables 4A and 4B show the percentage of 3737-TIL detected by flow cytometry as having the indicated phenotype following coculture with DCs cultured with the non-specific stimulator OKT3 or DCs transfected with green fluorescent protein (GFP) RNA, or the indicated tandem mini-gene (TMG) construct encoding the various mutations identified by whole-exomic sequencing. Mock-transfected cells were treated with transfection reagent only without addition of nucleic acid. Data were gated on live CD3+ cells.
3737-TIL were co-cultured with DCs transfected with TMG-1 or TMG-1 encoding the wild-type (wt) ERBB2IP reversion, and flow cytometry was used to assess OX40 and Vβ22 expression on CD4+ T cells at 24 hours post-stimulation. Plate-bound OKT3 stimulation was used as a positive control.

[1] = 3737-TIL CD4+ T cells, 24 hours post-stimulation
[2] = percentage of 3737-TIL after co-culture with transfected DCs or OKT3, gated on live CD3+ cells

Substance: OKT3: anti-CD3 antibody, non-specific stimulator, plate-bound positive control
- Vβ22+/OX40+ [1]: 44%
- Vβ22+/OX40− [1]: 6%
- Vβ22−/OX40+ [1]: 31%
- Vβ22−/OX40− [1]: 19%
- 4-1BB+/CD4+ [2]: 32%
- 4-1BB+/CD4− [2]: 41%
- 4-1BB−/CD4+ [2]: 23%
- 4-1BB−/CD4− [2]: 4%
- OX40+/CD4+ [2]: 45%
- OX40+/CD4− [2]: 6%
- OX40−/CD4+ [2]: 11%
- OX40−/CD4− [2]: 38%
